From patent US9249125B2, “Pyrazole derivatives as p38 MAP inhibitors” (RESPIVERT LIMITED, priority 2012, dated 2016)

Columns and labels:
[1] = system: LPS-induced TNFα release in d-U937 cells; experiment: LPS-induced TNFα release in d-U937 cells; assay type: cell-based; settings: Homo sapiens, dU937, relative to 10 μg/mL BIRB796, read-out: LPS Induced Release of Cytokine in d-937 Cells TNFα REC50
Summary of the method: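 Human monocytic U937 cells were differentiated to macrophage-type cells with PMA (100 ng/mL) for 48 to 72 hr, pre-treated with test compound for 2 hr, then stimulated 4 hr with E. coli O111:B4 LPS (0.1 μg/mL). Supernatant TNFα and IL-8 were measured by sandwich ELISA; REC50 came from concentration-response curves.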

cSrc = cSrc (Homo sapiens (Human), UniProt P12931); experiment: c-Src enzyme inhibition (FRET, Z-LYTE); assay type: biochemical
Summary of the method: (§1)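 Z-LYTE FRET kinase assay: enzyme (3000 or 2000 ng/mL stock, respectively) preincubated 2 h at RT with compound (4–0.004 μg/mL stocks), then FRET peptide plus ATP (800 μM stock for c-Src, 60 μM for Syk) added for 1 h. Protease development 1 h; phosphorylation from coumarin/fluorescein emission ratio.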

[2] = system: LPS-induced IL-8 release in d-U937 cells; experiment: LPS-induced IL-8 release in d-U937 cells; assay type: cell-based; settings: Homo sapiens, dU937, read-out: LPS Induced Release of Cytokine in d-937 Cells IL-8 IC50
Summary of the method: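 Read-out: TNFα and IL-8 released into supernatant, sandwich ELISA, expressed as inhibition versus vehicle at each dose and fitted to give REC50. Cells were PMA-differentiated U937 (100 ng/mL, 48–72 hr), compound-exposed 2 hr before a 4 hr LPS stimulus (0.1 μg/mL).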

[3] = system: Poly I:C-induced ICAM-1 expression in BEAS2B cells; experiment: Poly I:C-induced ICAM-1 expression in BEAS2B cells; assay type: cell-based; settings: Homo sapiens, BEAS-2B, read-out: Poly IC induced ICAM1 in BEAS2B IC50
Summary of the method: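 Cell-based ELISA read at 450 nm minus 655 nm, divided by crystal violet OD595 to normalize for cell number, gave ICAM-1 levels. Readout was taken 18 hr after poly I:C (1 μg/mL, Oligofectamine) transfection of human bronchial BEAS2B cells pretreated 2 hr with test compound.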

p38 MAPKα = p38 MAPKα (Homo sapiens (Human), UniProt Q16539); experiment: p38 MAPKα enzyme inhibition (FRET, Z-LYTE); assay type: biochemical
Syk = Syk (Homo sapiens (Human), UniProt P43405); experiment: Syk enzyme inhibition (FRET, Z-LYTE); assay type: biochemical
Summary of the method: as §1

d-U937 cells = experiment: Cell viability: MTT assay; assay type: cell-based, human; settings: 1 μg/mL
Summary of the method: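 MTT read-out (1 h, absorbance 550 nm) on d-U937 cells after pre-incubation with 1 or 10 μg/mL compound under two regimes: 4 h, 5% FCS, or 24 h, 10% FCS RPMI1640. Values are percent loss of viability relative to vehicle (0.5% DMSO), so increases are reported as negative.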

GSK3α = GSK3α (Homo sapiens (Human), UniProt P49840); experiment: GSK 3α enzyme inhibition (FRET, Z-LYTE); assay type: biochemical
Summary of the method: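 Phosphorylation was read as the donor (coumarin) to acceptor (fluorescein) ratio after a 1 hr protease step destroying non-phosphorylated peptide. Before this, compound (4–0.004 μg/mL stocks) sat 2 hr at RT with GSK3α (500 ng/mL stock), followed by 1 hr kinase reaction with 8 μM peptide and 40 μM ATP stocks.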

Chain of cSrc (P12931 whole entry, looked up): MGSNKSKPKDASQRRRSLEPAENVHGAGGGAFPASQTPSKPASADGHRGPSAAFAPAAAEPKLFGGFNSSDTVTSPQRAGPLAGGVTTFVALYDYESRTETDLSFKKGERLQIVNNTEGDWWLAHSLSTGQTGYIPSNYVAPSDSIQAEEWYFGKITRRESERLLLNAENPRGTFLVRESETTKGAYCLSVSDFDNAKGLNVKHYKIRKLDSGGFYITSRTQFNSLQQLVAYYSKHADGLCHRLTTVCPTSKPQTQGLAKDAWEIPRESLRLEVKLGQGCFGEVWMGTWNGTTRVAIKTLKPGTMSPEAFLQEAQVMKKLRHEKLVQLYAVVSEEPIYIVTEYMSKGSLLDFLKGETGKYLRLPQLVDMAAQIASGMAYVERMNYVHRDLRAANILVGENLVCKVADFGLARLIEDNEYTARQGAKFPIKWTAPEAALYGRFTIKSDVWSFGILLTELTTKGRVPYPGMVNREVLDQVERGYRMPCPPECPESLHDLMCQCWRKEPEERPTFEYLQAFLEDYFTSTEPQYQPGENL
Chain of GSK3α (P49840 whole entry): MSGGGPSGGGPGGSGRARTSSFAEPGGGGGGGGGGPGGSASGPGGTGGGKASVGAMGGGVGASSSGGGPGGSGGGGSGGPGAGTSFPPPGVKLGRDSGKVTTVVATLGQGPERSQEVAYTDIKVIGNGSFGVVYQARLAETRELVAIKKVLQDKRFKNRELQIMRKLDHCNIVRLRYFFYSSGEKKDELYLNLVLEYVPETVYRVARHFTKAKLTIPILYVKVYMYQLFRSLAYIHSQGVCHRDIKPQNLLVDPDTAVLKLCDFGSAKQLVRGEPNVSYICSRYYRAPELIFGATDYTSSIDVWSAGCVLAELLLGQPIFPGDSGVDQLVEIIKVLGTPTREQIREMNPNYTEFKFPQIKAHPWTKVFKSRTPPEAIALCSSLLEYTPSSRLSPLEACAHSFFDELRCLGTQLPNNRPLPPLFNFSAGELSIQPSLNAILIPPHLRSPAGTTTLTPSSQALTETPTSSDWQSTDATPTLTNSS
Chain of p38 MAPKα (Q16539 whole entry): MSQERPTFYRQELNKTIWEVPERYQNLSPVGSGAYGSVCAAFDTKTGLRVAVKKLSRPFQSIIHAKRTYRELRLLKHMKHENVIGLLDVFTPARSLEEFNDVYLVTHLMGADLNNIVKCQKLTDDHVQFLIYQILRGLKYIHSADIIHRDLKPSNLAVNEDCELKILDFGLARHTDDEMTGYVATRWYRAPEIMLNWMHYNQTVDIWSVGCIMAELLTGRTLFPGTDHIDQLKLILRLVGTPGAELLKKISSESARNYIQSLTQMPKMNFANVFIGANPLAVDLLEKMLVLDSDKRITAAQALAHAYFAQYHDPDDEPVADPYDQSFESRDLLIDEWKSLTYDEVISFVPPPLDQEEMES

| EC50 [1] [µM] | IC50 (cSrc) [µM] | IC50 [2] [µM] | IC50 (p38 MAPKα) [µM] | IC50 (Syk) [µM] | IC50 (GSK3α) [µM] | SMILES | IC50 [3] [µM] | MTT Assay Cell viability at time point in d-U937 cells 4 h (d-U937 cells) | MTT Assay Cell viability at time point in d-U937 cells 24 h (d-U937 cells) |
| --- | --- | --- | --- | --- | --- | --- | --- | --- | --- |
| 0.0187 | < 0.001 | 0.0847 | 0.014 | 0.007 | 1.54 | CC(C)c1cc(NC(=O)Nc2ccc(Oc3ccnc(Nc4ccc5c(c4)NC(=O)C5)n3)c3ccccc23)n(-c2ccc(OCCN3CCOCC3)cc2)n1 [Example 61, 1-(3-isopropyl-1-(4-(2-morpholinoethoxy)phenyl)-1H-pyrazol-5-yl)-3-(4-((2-((2-oxoindolin-6-yl)amino)pyrimidin-4-yl)oxy)naphthalen-1-yl)urea] | > 0.135 | −ve (−ve and +ve indicate that the value is below and above respectively, the no significant effect threshold, defined as 30% inhibition at 1 μg/mL at the time point indicated.) | −ve (−ve and +ve indicate that the value is below and above respectively, the no significant effect threshold, defined as 30% inhibition at 1 μg/mL at the time point indicated.) |
| 0.0013 | 0.002 | 0.0018 | 0.015 | 0.021 | 0.485 | COc1ccc(-n2nc(C(C)(C)C)cc2NC(=O)Nc2ccc(Oc3ccnc(Nc4ccc5c(cnn5CCN5CCOCC5)c4)n3)c3ccccc23)cc1 [Example 43, 1-(3-(tert-butyl)-1-(4-methoxyphenyl)-1H-pyrazol-5-yl)-3-(4-((2-((1-(2-morpholinoethyl)-1H-indazol-5-yl)amino)pyrimidin-4-yl)oxy)naphthalen-1-yl)urea] | 0.0024 | −ve (−ve and +ve indicate that the value is below and above respectively, the no significant effect threshold, defined as 30% inhibition at 1 μg/mL at the time point indicated.) | −ve (−ve and +ve indicate that the value is below and above respectively, the no significant effect threshold, defined as 30% inhibition at 1 μg/mL at the time point indicated.) |
| 0.0142 | < 0.001 | 0.0439 | 0.036 | < 0.001 | 4.95 | Cc1nc2cc(Nc3nccc(Oc4ccc(NC(=O)Nc5cc(C(C)(C)C)nn5-c5ccc(OCCN6CCOCC6)cc5)c5ccccc45)n3)ccc2[nH]1 [Example 75, 1-(3-(tert-butyl)-1-(4-(2-morpholinoethoxy)phenyl)-1H-pyrazol-5-yl)-3-(4-((2-((2-methyl-1H-benzo[d]imidazol-6-yl)amino)pyrimidin-4-yl)oxy)naphthalen-1-yl)urea] | 0.0163 | −ve (−ve and +ve indicate that the value is below and above respectively, the no significant effect threshold, defined as 30% inhibition at 1 μg/mL at the time point indicated.) | −ve (−ve and +ve indicate that the value is below and above respectively, the no significant effect threshold, defined as 30% inhibition at 1 μg/mL at the time point indicated.) |
| 0.0018 | 0.01 | 0.0011 | 0.184 | 0.026 | > 1.56 | COc1ccc(-n2nc(C(C)(C)C)cc2NC(=O)Nc2ccc(Oc3ccnc(Nc4ccc5[nH]ccc5c4)n3)c3ccccc23)cc1 [Example 38, 1-(4-((2-((1H-indol-5-yl)amino)pyrimidin-4-yl)oxy)naphthalen-1-yl)-3-(3-(tert-butyl)-1-(4-methoxyphenyl)-1H-pyrazol-5-yl)urea] | 0.0025 | −ve (−ve and +ve indicate that the value is below and above respectively, the no significant effect threshold, defined as 30% inhibition at 1 μg/mL at the time point indicated.) | −ve (−ve and +ve indicate that the value is below and above respectively, the no significant effect threshold, defined as 30% inhibition at 1 μg/mL at the time point indicated.) |
